# Results: PMC12040169 (PLOS Biology, 2025)
# Experiment: in vitro
# Details: human, hela cells, % viability
row,Compound,"viability at 28.5 h, 10 µM [%]"
1,Nc1c(-c2cccc(C(F)(F)F)c2)cnc2cccnc12 [CBK081187],88.7
2,CCOC(=O)c1[nH]c2ccccc2c1NS(=O)(=O)c1ccc(NC(C)=O)cc1 [CBK047411],81.4
3,Cc1cc(Cl)c(S(=O)(=O)N2CCCC2)cc1OCC(=O)NC1CCCCC1 [CBK266781],93.9
4,O=c1[nH]c(=O)n([C@H]2C[C@@H](O)[C@@H](CO)O2)cc1O [CBK201317],101
5,CCOC(=O)c1cnn2c(O)cc(CN3CCCCC3)nc12 [CBK305585],101
6,CCCCCC1CC(CC(=O)NC(=S)Nc2ccccc2Cl)C(=O)O1 (stereo not shown) [CBK019495],86.8
7,CC[C@H](Cn1nc(-c2cccs2)ccc1=O)NC(=O)C(C)C [CBK284296],93.7
8,CN(CC(=O)O)C(=O)OCc1ccccc1 [CBK012752],101
9,O=C(C1=C(O)C(=O)N(CCCn2ccnc2)C1c1ccncc1)c1cccs1 (stereo not shown) [CBK111017],106
10,CN(C)c1ccc(-c2nccnc2NCc2ccc(S(C)(=O)=O)cc2)cc1 [CBK036902],104
11,O=C(Cc1cc(F)cc(F)c1F)Nc1cccc2[nH]ccc12 [CBK159650],89
12,O=C(Cn1c([C@@H]2CCCO2)cc2cccnc21)N1CCCCC1 [CBK282286],90.3
13,CC(=O)N(C)c1nc(-c2cccc(N(C)C)c2)ccc1C(=O)NCc1cccnc1 [CBK076639],101
14,CCCc1cc(CNC(=O)CN2CCCC(C)C2)on1 (stereo not shown) [CBK282045],99.8
15,Cc1c(C(=O)N(C)CC(F)(F)F)nnn1-c1ccc(F)cc1 [CBK282214],89.8
16,O=C(NC(=S)Nc1ccc(C(=O)O)c(Cl)c1)c1ccc(-c2ccc(Cl)cc2)o1 [CBK265063],105
17,CCCN1CCCC(NS(=O)(=O)c2cc(-n3cccn3)ccc2OC)C1 (stereo not shown) [CBK307426],91.8
18,c1ccc(-c2noc(CN3CCN(C(c4ccccc4)c4ccccc4)CC3)n2)cc1 [CBK265844],101
19,CCC(CN1CCOCC1)NC(=O)Cc1ccc2c(c1)CCC2 (stereo not shown) [CBK282810],114
20,Clc1ccccc1-c1nsc(Nc2ccccc2)n1 [CBK016152],96.2
21,CC(C)[C@H]1CN(Cc2ccccc2F)CCN1C(=O)Cn1ncc2ccccc2c1=O [CBK286172],82.2
22,O=S(=O)(Nc1cccc(C(F)(F)F)c1)c1ccc(OC(F)(F)F)cc1 [CBK043554],86.3

row,Compound,"viability at 28.5 h, 10 µM [%]"
1,NS(=O)(=O)c1ccc(NC(=S)N2CCN(CCO)CC2)cc1 [CBK265891],87.5
2,CCOC(=O)c1c(/N=C/c2cc(I)cc(I)c2O)sc2c1CCN(Cc1ccccc1)C2 [CBK262246],106
3,O=C(CSc1nc2ccccc2s1)c1cccc([N+](=O)[O-])c1 [CBK262130],88.2
4,Cn1c(=O)c2c(ncn2Cc2ccc(C#N)cc2)n(C)c1=O [CBK134217],106
5,COc1ccc(S(=O)(=O)N2CCN(C)CC2)cn1 [CBK269511],85.9
6,CCNS(=O)(=O)c1ccc(NC(=S)Nc2ccc(S(N)(=O)=O)cc2)cc1 [CBK266978],99.5
7,CS(=O)(=O)Nc1cc2cccnc2c(-c2ccc3c(c2)CCO3)n1 [CBK085705],101
8,CCOC(=O)CSc1nc2ccccc2nc1C(F)(F)F [CBK107200],92.8
9,CC(C)C(=O)Nc1ccc2nc(-c3ccoc3)c(-c3ccoc3)nc2c1 [CBK286304],96.9
10,Cc1cc(C)nc(N2CCC(C3CC=CCN(CCc4ccccc4)C3=O)CC2)n1 (stereo not shown) [CBK285575],105
11,Cc1oc2ccc(O)cc2c1C(=O)NCCCN1CC(C)CC(C)C1 (stereo not shown) [CBK282161],110
12,CSc1nnc(CC2CCN(C(=O)c3ccccc3C(C)=O)CC2)n1C [CBK306720],111
13,COc1ccc(NC(=O)c2ccc(N(C)Cc3ccccc3)c([N+](=O)[O-])c2)cc1 [CBK268094],86.4
14,O=C(NC1CCCC1)c1ccc(-n2ccnc2)c(-n2cccc2)c1 [CBK285368],94.1
15,CC1CN(c2nccn(CCOc3ccc(Br)cc3)c2=O)CCN1 (stereo not shown) [CBK028596T],94.2
16,OCC(O)/C=N/Nc1nc(N2CCCCC2)nc(N2CCCCC2)n1 (stereo not shown) [CBK019423],107
17,CNC(=O)Nc1ccc(C(C)(C)C)cc1Br [CBK086434],111
18,COc1ccc(OC)c(-n2cnc3c2NC(=O)CC3c2ccccc2Cl)c1 (stereo not shown) [CBK287983],91.1
19,Cc1cccnc1C(c1ccccc1)N(C)C(=O)C1CCN(C(=O)NCc2ccccc2)CC1 (stereo not shown) [CBK074119],106
20,C=CCn1c(Cc2csc(NC(=O)c3ccc(C)cc3)n2)n[nH]c1=S [CBK295292],96.4
21,Cc1cc(OC(=O)C2CCC(CNC(=O)OC(C)(C)C)CC2)c2c3c(c(=O)oc2c1)CCC3 (stereo not shown) [CBK083583],103
22,CC(C)[C@H]1CN(Cc2ccco2)CCN1Cc1ccccn1 [CBK284275],112

row,Compound,"viability at 28.5 h, 10 µM [%]"
1,CC1CCCCC1NC(=O)NC(=O)Cn1nnc2ccccc2c1=O (stereo not shown) [CBK306046],90.2
2,CNC(=O)c1ccc(-c2ccc(C(C)=O)s2)nc1NCC1CC1 [CBK106307],95.3
3,CNC(=O)c1ccc(-c2cnc(NCC3CCN(C(=O)OC(C)(C)C)CC3)cn2)cc1 [CBK173726],111
4,COc1cc(/C=N/NC(=O)CCN2CCN(C)CC2)cc2c1OCO2 [CBK261504],116
5,Cc1ccc(N2CCCN(C(=O)CCc3ccsc3)CC2)nn1 [CBK304573],91.1
6,COCCN1CCC2(C/C=C/C[C@H]3COCC[C@H]3NC(=O)CNC2=O)CC1 [CBK292145],116
7,C[C@H](Nc1cncc(-c2ccc3ccccc3c2)n1)c1ccccc1 [CBK065799],108
8,COC(=O)[C@@H]1Cc2ncn(C(C)C)c2CN1S(=O)(=O)c1ccc(C#N)cc1 [CBK288986],84
9,O=C(CN1C(=O)N2CCCN=C2c2ccccc21)NC1CCCC1 [CBK284397],82.6
10,CCOc1cccc(-c2ccc(Nc3ccc(Oc4ccccc4)cc3)nc2)c1 [CBK037679],94.4
11,CCCCc1ccc(-c2cnc3ncccc3c2N)cc1 [CBK083683],96.2
12,COc1ccccc1-c1nccnc1OCCn1cccc1 [CBK106820],91.3
13,O=C1C2CCCN2S(=O)(=O)c2ccccc2N1Cc1ccccc1 (stereo not shown) [CBK284018],88.6
14,O=C(O)CCC(=O)Nc1ccc(-c2nc3ccccc3o2)cc1 [CBK261330],98
15,COC(=O)c1cccc2c(C)c(C)[nH]c12 [CBK001563],97.4
16,CNS(=O)(=O)c1cc(C(=O)N2CCN(c3ccccc3)CC2)ccc1OC [CBK270192],88.9
17,Cc1cc(C)cc(OCC(=O)NNC(=O)CN2C(=O)c3ccccc3C2=O)c1 [CBK262394],91.4
18,CCC(=O)N1CCC(NC(=O)N(CCc2ccccn2)Cc2ccccc2)CC1 [CBK171898],90.9
19,Cc1cc(CN(C)C(=O)c2cccc(NC(=O)C3CCCCC3)c2)no1 [CBK305722],92.6
20,COc1cccc(CC(=O)N2CCC(Cc3ccccc3-c3cccs3)(C(N)=O)CC2)c1 [CBK285908],112
21,CC(=O)c1ccc2c(c1)[C@@H]1C=CC[C@@H]1[C@H](C(=O)O)N2 [CBK287093],91.6
22,COc1nc2ccn(CCN3C(=O)CCC3=O)c(=O)c2cc1C#N [CBK307422],94.7

row,Compound,"viability at 28.5 h, 10 µM [%]"
1,CCn1ncc(S(=O)(=O)N2CCCC(c3cccc(-c4cccc(OC)c4)n3)C2)c1C (stereo not shown) [CBK286155],96.8
2,Cn1ccnc1C1(O)CCN(C(=O)c2cccc(F)c2)CC1 [CBK283543],107
3,COc1ccccc1-c1ccccc1CC1(C(=O)NCc2cccc(F)c2)CCOCC1 [CBK286426],96.9
4,Clc1ccc(C2N(Cc3ccccc3)CCC3CCCCN32)cc1Cl (stereo not shown) [CBK028769],86.6
5,COc1ccc(N2CCN(c3cc(-c4cccc(NC(C)=O)c4)ncn3)CC2)cc1OC [CBK091029],96.4
6,Cc1nc(C)c(CC(=O)N2CCC(Oc3cccc(F)c3)CC2)s1 [CBK282223],97.4
7,O=C(Cc1csc(-c2ccc(Cl)cc2)n1)Nc1cccnc1 [CBK107300],101
8,CC(=O)Nc1ccc(-c2cc(-c3ccc(NC(C)=O)cc3)nc(-c3ccc([N+](=O)[O-])cc3)n2)cc1 [CBK261273],91.5
9,Oc1cccc(Sc2cc(C(F)(F)F)ccn2)c1 [CBK115273],97.7
10,Nc1ncnc2[nH]c(SCc3nc4ccccc4n3Cc3ccccc3)nc12 [CBK264148],103
11,c1ccc(COc2ccc(-n3cnnn3)cc2)nc1 [CBK288196],83.5
12,Cc1cc(C)cc(NS(=O)(=O)c2ccc(NC(=O)C(C)Oc3ccc(Cl)cc3Cl)cc2)c1 (stereo not shown) [CBK264894],108
13,CC(C)Oc1ncc(C(=O)N(CCC#N)Cc2ccco2)cc1Cl [CBK304908],91.6
14,COc1ccc(CCNC(=O)CN2CCCC2c2cnn(C)c2)cc1 (stereo not shown) [CBK305371],84.2
15,Nc1ncc(-c2ccoc2)nc1-c1ccc(F)c(Cl)c1 [CBK063982],93.9
16,O=C(CN1C(=O)CCC1=O)Nc1nnc(-c2ccc3c(c2)CCCC3)o1 [CBK287427],80.2
17,Cc1ccc(C(=O)Oc2cccc(NC(=O)c3ccco3)c2)cc1S(=O)(=O)N1CCOCC1 [CBK263211],94.1
18,CCCCOc1ccc(OC(=O)C2CCN(CCCC)CC2)cc1 [CBK122680],112
19,Cc1ccc(S(=O)(=O)N(C(=O)c2ccncc2)c2ccc(OC(=O)c3ccncc3)cc2)c(C)c1 [CBK265635],104

# Same assay, conditions: human, hela cells, % viability, bulk resorufin, single well
row,Compound,"viability at 28.5 h, 10 µM [%]"
1,COc1cc(-c2ccc3c(c2)OC2(CCNCC2)O3)ccn1 [CBK091454],106
2,COc1ccc(OC(=O)Cc2ccccc2)cc1 [CBK131826],117
3,COc1ccccc1CCNCc1ccc([N+](=O)[O-])cc1 [CBK262292],93.3
